# Where no end group is shown, it is not given here.
# Legend:
# MRSA 1530 = test: microbe, parasite or virus in culture; type: cell-based, Staphylococcus aureus; details: 1530
# Protocol: (§1) S. aureus ATCC 29213, E. coli ATCC 25922, S. enteritidis ATCC 13076 and A. baumannii ATCC 19609 were obtained from the American Type Culture Collection (ATCC). The remaining strains used in the experiment were all preserved strains in our laboratory. All strains were cultured in nutrient broth overnight to the logarithmic phase at 37 °C prior to each experiment.
# (§2) The MICs of all drugs were determined by micro-broth dilution method according to CLSI 2018 guidelines. Briefly, a single colony of the bacterial strain was transferred to 1 mL of Mueller Hilton broth (MHB) and overnight at 37 °C and then 10 μL were cultured in a new 1 mL medium for 4 to 6 h, and then the bacterial culture at the logarithmic phase was diluted to 1 × 10^6 CFUs/mL. The assay was performed by adding 100 μL of each peptide solution at various concentrations (0.25 to 128 μg/mL) and 100 μL of diluted bacterial culture to different wells of a 96-well microtiter plate (Corning, NY, USA). After incubation at 37 °C for 16 to 18 h and then read its MIC value. MIC value is defined as the lowest drug concentration without visible bacteria.
# MRSA T144 [1] = test: microbe, parasite or virus in culture; type: cell-based, Staphylococcus aureus; details: T144
# Protocol: as §1, §2
# A. baumannii ATCC 19609 = test: microbe, parasite or virus in culture; type: cell-based; details: ATCC 19609
# Protocol: as §1, §2
# E. coli 1F28 (tet(X4)) = test: microbe, parasite or virus in culture; type: cell-based; details: 1F28 (tet(X4))
# Protocol: as §1, §2
# E. coli ATCC 25922 = test: microbe, parasite or virus in culture; type: cell-based; details: ATCC 25922
# Protocol: as §1, §2
# [2] = test system: E. coli B2 (blaNDM-5 + mcr-1); test: microbe, parasite or virus in culture; type: cell-based; details: B2 (blaNDM-5 + mcr-1)
# Protocol: as §1, §2
# E. coli B3-1 (tet(X4)) = test: microbe, parasite or virus in culture; type: cell-based; details: B3-1 (tet(X4))
# Protocol: as §1, §2
# E. coli C3 (blaNDM-1) = test: microbe, parasite or virus in culture; type: cell-based; details: C3 (blaNDM-1)
# Protocol: as §1, §2
# E. coli CP131 (mcr-3) = test: microbe, parasite or virus in culture; type: cell-based; details: CP131 (mcr-3)
# Protocol: as §1, §2
# E. coli G6 (blaNDM-5) = test: microbe, parasite or virus in culture; type: cell-based; details: G6 (blaNDM-5)
# Protocol: as §1, §2
# E. coli G92 (mcr-1) = test: microbe, parasite or virus in culture; type: cell-based; details: G92 (mcr-1)
# Protocol: as §1, §2
# [3] = test system: E. faecalis A4 (VRE, VanA); test: microbe, parasite or virus in culture; type: cell-based; details: A4 (VRE, VanA)
# Protocol: as §1, §2
# [4] = test system: P. aeruginosa (VIM + tmexCD1-torJ1); test: microbe, parasite or virus in culture; type: cell-based; details: VIM + tmexCD1-torJ1
# Protocol: as §1, §2
# P. aeruginosa PA14 = test: microbe, parasite or virus in culture; type: cell-based; details: PA14
# Protocol: as §1, §2
# [5] = test system: S. aureus 215 (cfr + LZD^R); test: microbe, parasite or virus in culture; type: cell-based; details: S. aureus 215 (cfr + LZD^R); micro-broth dilution CLSI 2018, MHB, 37 °C, 16 to 18 h
# Protocol: as §1, §2
# S. aureus ATCC 29213 = test: microbe, parasite or virus in culture; type: cell-based; details: ATCC 29213
# Protocol: as §1, §2
# S. aureus G16 (RIF^R) = test: microbe, parasite or virus in culture; type: cell-based; details: S. aureus G16 (RIF^R); micro-broth dilution CLSI 2018, MHB, 37 °C, 16 to 18 h
# Protocol: as §1, §2
# [6] = test system: S. enteritidis ATCC 13076; test: microbe, parasite or virus in culture; type: cell-based; details: ATCC 13076
# Protocol: as §1, §2
# [7] = test system: P. cibarius HNCF44W (blaNDM-1+ tet(X6)); test: organism not typed; type: cell-based
# Protocol: as §1, §2
# MRSA T144 [8] = type: cell-based, Staphylococcus aureus
# Protocol: as §2
# (§3) Then, the antibacterial activity of the peptides affected by different temperatures and pH were determined according to the determination steps of MICs test.
# (§4) In MHB medium, Na^+, K^+, Mg^2+ and Ca^2+ with the final concentrations of 10 mM, fetal bovine serum, plasma or DMEM medium (Hyclone, Logan, UT, USA) with the final concentrations of 10% was added, and then MIC values were measured to evaluate the effects of different cations, serum and plasma on the antibacterial activity of peptides.
# (§5) The peptide was incubated with protease (pepsin, trypsin and papain) (Solarbio, Beijing, China) with a final concentration of 1 mg/mL at 37 °C for 1 h, then the mixture of peptide and protease was heated at 100 °C for 30 min, then centrifuged at 13,000× g for 30 min, and the supernatant was taken for MIC determination.
# E. coli B2 = type: cell-based
# Protocol: as §2, §3, §4, §5
sequence,measurement,setting,value
GWKSFFKKFKHVWK [GK-3],MIC,MRSA 1530,16 µg/mL
same,MIC,MRSA T144 [1],8 µg/mL
same,MIC,A. baumannii ATCC 19609,4 µg/mL
same,MIC,E. coli 1F28 (tet(X4)),16 µg/mL
same,MIC,E. coli ATCC 25922,8 µg/mL
same,MIC,[2],4 µg/mL
same,MIC,E. coli B3-1 (tet(X4)),2 µg/mL
same,MIC,E. coli C3 (blaNDM-1),4 µg/mL
same,MIC,E. coli CP131 (mcr-3),2 µg/mL
same,MIC,E. coli G6 (blaNDM-5),4 µg/mL
same,MIC,E. coli G92 (mcr-1),2 µg/mL
same,MIC,[3],32 µg/mL
same,MIC,[4],16 µg/mL
same,MIC,P. aeruginosa PA14,64 µg/mL
same,MIC,[5],4 µg/mL
same,MIC,S. aureus ATCC 29213,4 µg/mL
same,MIC,S. aureus G16 (RIF^R),8 µg/mL
same,MIC,[6],4 µg/mL
same,MIC,[7],8 µg/mL
same,MIC after treatment at 121 °C,MRSA T144 [8]; T144,8 µg/mL
same,MIC in DMEM (10%),MRSA T144 [8]; T144,4 µg/mL
same,MIC in Plasma (10%),MRSA T144 [8]; T144,4 µg/mL
same,MIC in Serum (10%),MRSA T144 [8]; T144,8 µg/mL
same,MIC in presence of Ca^2+,MRSA T144 [8]; T144,>128 µg/mL
same,MIC in presence of K^+,MRSA T144 [8]; T144,4 µg/mL
same,MIC in presence of Mg^2+,MRSA T144 [8]; T144,8 µg/mL
same,MIC in presence of Na^+,MRSA T144 [8]; T144,2 µg/mL
same,"MIC, Control",MRSA T144 [8]; T144,8 µg/mL
same,MIC after Papain treatment,"MRSA T144 [8]; T144, 1 h",>128 µg/mL
same,MIC after Pepsin treatment,"MRSA T144 [8]; T144, 1 h",64 µg/mL
same,MIC after Trypsin treatment,"MRSA T144 [8]; T144, 1 h",>128 µg/mL
same,MIC after treatment at 40 °C,"MRSA T144 [8]; T144, 1 h",4 µg/mL
same,MIC after treatment at 60 °C,"MRSA T144 [8]; T144, 1 h",2 µg/mL
same,MIC after treatment at 80 °C,"MRSA T144 [8]; T144, 1 h",4 µg/mL
same,MIC after treatment at 100 °C,"MRSA T144 [8]; T144, 1 h",8 µg/mL
same,MIC after treatment at pH 2,"MRSA T144 [8]; T144, 1 h, pH 2",4 µg/mL
same,MIC after treatment at pH 4,"MRSA T144 [8]; T144, 1 h, pH 4",4 µg/mL
same,MIC after treatment at pH 6,"MRSA T144 [8]; T144, 1 h, pH 6",4 µg/mL
same,MIC after treatment at pH 8,"MRSA T144 [8]; T144, 1 h, pH 8",4 µg/mL
same,MIC after treatment at pH 10,"MRSA T144 [8]; T144, 1 h, pH 10",4 µg/mL
same,MIC after treatment at pH 12,"MRSA T144 [8]; T144, 1 h, pH 12",4 µg/mL
same,MIC after treatment at 121 °C,E. coli B2; B2,4 µg/mL
same,MIC in DMEM (10%),E. coli B2; B2,4 µg/mL
same,MIC in Plasma (10%),E. coli B2; B2,0.5 µg/mL
same,MIC in Serum (10%),E. coli B2; B2,8 µg/mL
same,MIC in presence of Ca^2+,E. coli B2; B2,>128 µg/mL
same,MIC in presence of K^+,E. coli B2; B2,2 µg/mL
same,MIC in presence of Mg^2+,E. coli B2; B2,32 µg/mL
same,MIC in presence of Na^+,E. coli B2; B2,2 µg/mL
same,"MIC, Control",E. coli B2; B2,4 µg/mL
same,MIC after Papain treatment,"E. coli B2; B2, 1 h",>128 µg/mL
same,MIC after Pepsin treatment,"E. coli B2; B2, 1 h",64 µg/mL
same,MIC after Trypsin treatment,"E. coli B2; B2, 1 h",>128 µg/mL
same,MIC after treatment at 40 °C,"E. coli B2; B2, 1 h",2 µg/mL
same,MIC after treatment at 60 °C,"E. coli B2; B2, 1 h",2 µg/mL
same,MIC after treatment at 80 °C,"E. coli B2; B2, 1 h",2 µg/mL
same,MIC after treatment at 100 °C,"E. coli B2; B2, 1 h",4 µg/mL
same,MIC after treatment at pH 2,"E. coli B2; B2, 1 h, pH 2",4 µg/mL
same,MIC after treatment at pH 4,"E. coli B2; B2, 1 h, pH 4",2 µg/mL
same,MIC after treatment at pH 6,"E. coli B2; B2, 1 h, pH 6",2 µg/mL
same,MIC after treatment at pH 8,"E. coli B2; B2, 1 h, pH 8",2 µg/mL
same,MIC after treatment at pH 10,"E. coli B2; B2, 1 h, pH 10",2 µg/mL
same,MIC after treatment at pH 12,"E. coli B2; B2, 1 h, pH 12",2 µg/mL

# — article PMC9610943, “Truncated Pleurocidin Derivative with High Pepsin Hydrolysis Resistance to Combat Multidrug-Resistant Pathogens” (Pharmaceutics, 2022)
